# Data as given in patent US20240148821A1, “PHARMACEUTICAL USE OF CYCLIC PEPTIDE COMPOUND” (CHUGAI SEIYAKU KABUSHIKI KAISHA, priority 2021, published 2024).
# Bridge positions count the residues as written; N and C are the ends. Square brackets hold non-standard residues; d marks the D form. Peptide text beside a SMILES is read from it. * marks the point of attachment. hPhe(3,5-F2-4-CF3) = N[C@@H](CCc1cc(F)c(C(F)(F)F)c(F)c1)C(=O)O; hPhe(3-Cl-4-CF3) = N[C@@H](CCc1ccc(C(F)(F)F)c(Cl)c1)C(=O)O; hPhe(3-F,4-CF3) = N[C@@H](CCc1ccc(C(F)(F)F)c(F)c1)C(=O)O; NMePhe(4-Cl) = CN[C@@H](Cc1ccc(Cl)cc1)C(=O)O; NMePhe(4-Me) = CN[C@@H](Cc1ccc(C)cc1)C(=O)O; NMeNle(6-CHF2) = CN[C@@H](CCCCC(F)F)C(=O)O; NMePhe(4-F) = CN[C@@H](Cc1ccc(F)cc1)C(=O)O; NMePhe(2-F) = CN[C@@H](Cc1ccccc1F)C(=O)O; NMeGly(cPent) = CN[C@H](C(=O)O)C1CCCC1; Pro(4,4-F2) = O=C(O)[C@@H]1CC(F)(F)CN1; NMeGly(cBu) = CN[C@H](C(=O)O)C1CCC1; NMeCha = CN[C@@H](CC1CCCCC1)C(=O)O; NMeChg = CN[C@H](C(=O)O)C1CCCCC1; NMeD = CN[C@@H](CC(=O)O)C(=O)O; NMeL = CN[C@@H](CC(C)C)C(=O)O; NMeV = CN[C@H](C(=O)O)C(C)C; d(β3hA) = C[C@@H](N)CC(=O)O; Morpholide = C1CN(*)CCO1; NMeA = CN[C@@H](C)C(=O)O; Piperidide = C1CCN(*)CC1; dNMeA = CN[C@H](C)C(=O)O; Ac5c = NC1(C(=O)O)CCCC1; Aze = O=C(O)[C@@H]1CCN1; NcPrGly = O=C(O)CNC1CC1; Aib = CC(C)(N)C(=O)O; Sar = CNCC(=O)O
# Tested on: Human pancreatic cancer cell line AsPC-1 (G12D mutation Kras)
# Test: AsPC-1 cell growth inhibition (AsPC-1 CGI)
# Type: cell-based
# Settings: read-out: AsPC-1 cell growth inhibition, 50% growth inhibitory concentration (IC50 value); 96 hours, CellTiter-Glo, values classified in ranges
# Procedure: Test compounds were serially dilated with dimethyl sulfoxide, and 200 nL was then dispensed to a U-bottom 96-well plate using Labcyte Echo. […] The cell suspension was dispensed to a. plate containing a test compound at 100 μL per well and incubated at 37° C. in a 5% carbon dioxide gas incubator. 96 hours later, 80 μL of CellTiter-Glo (Promega) was added to each well and fluorescence was measured.
row,SMILES,IC50
1,CC[C@H](C)[C@@H]1NC(=O)[C@H](CC(C)C)N(C)C(=O)C[C@@H](C)NC(=O)[C@H](C)N(C)C(=O)C2(CCCC2)NC(=O)[C@@H]2CCCN2C(=O)[C@H](CCc2ccc(C(F)(F)F)c(Cl)c2)NC(=O)CN(C)C(=O)[C@H](Cc2ccc(C)cc2)N(C)C(=O)[C@@H]2CCN2C(=O)[C@H](C)N(C)C1=O [Compound 1239] (cyclo([Ac5c][NMeA][d(β3hA)][NMeL]I[NMeA][Aze][NMePhe(4-Me)][Sar][hPhe(3-Cl-4-CF3)]P)),> 500 nM
2,CC[C@H](C)[C@@H]1NC(=O)[C@H](C)N(C)C(=O)C[C@@H](C)NC(=O)[C@H](C2CCCC2)N(C)C(=O)C2(CCCC2)NC(=O)[C@@H]2CCCN2C(=O)[C@H](CCc2ccc(C(F)(F)F)c(Cl)c2)NC(=O)[C@@H](C)N(C)C(=O)[C@H](Cc2ccc(C)cc2)N(C)C(=O)CN(C)C(=O)CN(C)C1=O [Compound 1465] (cyclo([Ac5c][NMeGly(cPent)][d(β3hA)][NMeA]I[Sar][Sar][NMePhe(4-Me)][dNMeA][hPhe(3-Cl-4-CF3)]P)),> 500 nM
3,CC[C@H](C)[C@@H]1NC(=O)[C@H](CC(C)C)N(C)C(=O)C[C@@H](C)NC(=O)[C@H](C(C)C)N(C)C(=O)C2(CCCC2)NC(=O)[C@@H]2CCCN2C(=O)[C@H](CCc2ccc(C(F)(F)F)c(Cl)c2)NC(=O)CN(C)C(=O)[C@H](CC2CCCCC2)N(C)C(=O)CN(C)C(=O)CN(C2CC2)C1=O [Compound 542] (cyclo([Ac5c][NMeV][d(β3hA)][NMeL]I[NcPrGly][Sar][NMeCha][Sar][hPhe(3-Cl-4-CF3)]P)),> 500 nM
4,CC[C@H](C)[C@@H]1NC(=O)[C@H](CC(C)C)N(C)C(=O)C[C@@H](C(=O)N(C)C)N(C)C(=O)[C@H](C2CCCC2)N(C)C(=O)C2(CCCC2)NC(=O)[C@@H](C)NC(=O)[C@H](CCc2ccc(C(F)(F)F)c(Cl)c2)NC(=O)CN(C)C(=O)[C@H](CC2CCCCC2)N(C)C(=O)[C@@H]2CCN2C(=O)[C@H](C)N(C)C1=O [Compound 191] ([NMeL]I[NMeA][Aze][NMeCha][Sar][hPhe(3-Cl-4-CF3)][dA][Ac5c][NMeGly(cPent)][NMeD]-NMe2; lactam N-11),> 500 nM
5,CC[C@H](C)[C@@H]1NC(=O)[C@H](C)N(C)C(=O)C[C@@H](C)NC(=O)[C@H](C2CCCC2)N(C)C(=O)C2(CCCC2)NC(=O)[C@@H]2CCCN2C(=O)[C@H](CCc2ccc(C(F)(F)F)c(Cl)c2)NC(=O)CN(C)C(=O)[C@H](Cc2ccccc2F)N(C)C(=O)[C@@H]2CCCN2C(=O)CN(C)C1=O [Compound 1077] (cyclo([Ac5c][NMeGly(cPent)][d(β3hA)][NMeA]I[Sar]P[NMePhe(2-F)][Sar][hPhe(3-Cl-4-CF3)]P)),> 500 nM
6,"CC[C@H](C)[C@@H]1NC(=O)[C@H](C(C)C)N(C)C(=O)C[C@@H](C)NC(=O)[C@H](CC(C)C)N(C)C(=O)C2(CCCC2)NC(=O)[C@H](CC(C)C)N(C)C(=O)[C@H](CCc2ccc(C(F)(F)F)c(F)c2)NC(=O)CN(C)C(=O)[C@H](Cc2ccc(Cl)cc2)N(C)C(=O)CN(C)C(=O)CN(C)C1=O [Compound 851] (cyclo([Ac5c][NMeL][d(β3hA)][NMeV]I[Sar][Sar][NMePhe(4-Cl)][Sar][hPhe(3-F,4-CF3)][NMeL]))",> 500 nM
7,"CC[C@H](C)[C@@H]1NC(=O)[C@H](CC(C)C)N(C)C(=O)C[C@@H](C(=O)N2CCOCC2)N(C)C(=O)[C@H](C2CCCCC2)N(C)C(=O)C2(CCCC2)NC(=O)[C@@H]2CC(F)(F)CN2C(=O)[C@H](CCc2cc(F)c(C(F)(F)F)c(F)c2)NC(=O)CN(C)C(=O)[C@H](CC2CCCCC2)N(C)C(=O)CN(C)C(=O)CN(C)C1=O [Compound 1337] ([NMeL]I[Sar][Sar][NMeCha][Sar][hPhe(3,5-F2-4-CF3)][Pro(4,4-F2)][Ac5c][NMeChg][NMeD]-Morpholide; lactam N-11)",≤ 20 nM
8,CC[C@H](C)[C@@H]1NC(=O)[C@H](CC(C)C)N(C)C(=O)C[C@@H](C(=O)N2CCCCC2)N(C)C(=O)[C@H](C2CCCCC2)N(C)C(=O)C2(CCCC2)NC(=O)[C@@H]2CCCN2C(=O)[C@H](CCc2ccc(C(F)(F)F)c(Cl)c2)NC(=O)CN(C)C(=O)[C@H](C2CCC2)N(C)C(=O)CN(C)C(=O)CN(C)C1=O [Compound 936] ([NMeL]I[Sar][Sar][NMeGly(cBu)][Sar][hPhe(3-Cl-4-CF3)]P[Ac5c][NMeChg][NMeD]-Piperidide; lactam N-11),> 500 nM
9,CC[C@H](C)[C@@H]1NC(=O)[C@H](C)N(C)C(=O)C[C@@H](C(=O)N2CCCCC2)N(C)C(=O)[C@H](C(C)C)N(C)C(=O)C2(CCCC2)NC(=O)[C@H](Cc2ccc(F)cc2)N(C)C(=O)[C@H](CCc2ccc(C(F)(F)F)c(Cl)c2)NC(=O)CN(C)C(=O)[C@H](CC2CCCCC2)N(C)C(=O)CN(C)C(=O)CN(C)C1=O [Compound 821] ([NMeA]I[Sar][Sar][NMeCha][Sar][hPhe(3-Cl-4-CF3)][NMePhe(4-F)][Ac5c][NMeV][NMeD]-Piperidide; lactam N-11),> 500 nM
10,"CC[C@H](C)[C@@H]1NC(=O)[C@H](CC(C)C)N(C)C(=O)C[C@@H](C)NC(=O)[C@H](CC(C)C)N(C)C(=O)C(C)(C)NC(=O)[C@H](CC(C)C)N(C)C(=O)[C@H](CCc2ccc(C(F)(F)F)c(F)c2)NC(=O)CN(C)C(=O)[C@H](CCCCC(F)F)N(C)C(=O)CN(C)C(=O)CN(C)C1=O [Compound 1526] (cyclo([Aib][NMeL][d(β3hA)][NMeL]I[Sar][Sar][NMeNle(6-CHF2)][Sar][hPhe(3-F,4-CF3)][NMeL]))",> 500 nM
